The values below come from paper PMC10185516, “Synthesis, in vitro inhibitor screening, structure–activity relationship, and molecular dynamic simulation studies of novel thioquinoline derivatives as potent α-glucosidase inhibitors” (Scientific Reports, 2023).

Like-named read-outs stand apart in the source and are kept apart here.

Usually IC50 stands for the midpoint of a concentration-inhibition curve. What is called melting point is the temperature of the solid-liquid transition. A word on the Ki: it is the dissociation constant of the complex between target and ligand, obtained from inhibition or displacement.

In series [1] the target is α-glucosidase. The conditions noted are these: cited from earlier work.
The target of series [2] is T1, α-glucosidase enzyme (EC3.2.1.20) (Saccharomyces cerevisiae, UniProt P38158).
T1 construct: purchased Sigma-Aldrich
The series can be described thus: biochemical. It is filed as biochemical. The method, then: α-glucosidase enzyme (EC3.2.1.20, Saccharomyces cerevisiae, 20 U/mg) and substrate (p-nitrophenyl glucopyranoside) were purchased from Sigma-Aldrich. α-glucosidase was dissolved in potassium phosphate buffer (50 mM, pH = 6.8) to obtain the initial activity of 1 U/ml. Then, 20 µl of this enzyme solution was added to 135 µl of potassium phosphate buffer and 20 µl of test compound at various concentrations in DMSO. After 10 min incubation at 37 °C, 25 µl of the substrate at a final concentration of 4 mM was added to the mixture and allowed to incubate at 37 °C for 20 min. Then, the change in absorbance was measured at 405 nm spectroscopically. […] The percentage of inhibition for each entry was calculated by using the following formula: \%Inhibition=Abs control-Abs sample/Abs control×100 IC50 values were obtained from the nonlinear regression curve using the Logit method[15],[29].

Series [3] addresses T2, α-glucosidase (Saccharomyces cerevisiae, UniProt P38158).
T2 construct: purchased Sigma-Aldrich
The series can be described thus: Enzyme kinetic studies (Lineweaver–Burk plot, secondary plot). It is filed as biochemical. The protocol: A Lineweaver–Burk plot was generated to identify the type of inhibition and the Michaelis–Menten constant (Km) value was determined from the plot between the reciprocal of the substrate concentration (1/[S]) and reciprocal of enzyme rate (1/V) over various inhibitor concentrations.

On the set-up of series [4]: method as in PMID 29980114. The conditions noted are these: at the tested concentrations; cited from earlier work.
Setting [5] is: previously reported aryl-hydrazide inhibitors, Fig. 1, read-out: IC50.
Setting [6] is: previously reported inhibitors, Fig. 1, recent research.

T1 sequence (P38158 whole entry): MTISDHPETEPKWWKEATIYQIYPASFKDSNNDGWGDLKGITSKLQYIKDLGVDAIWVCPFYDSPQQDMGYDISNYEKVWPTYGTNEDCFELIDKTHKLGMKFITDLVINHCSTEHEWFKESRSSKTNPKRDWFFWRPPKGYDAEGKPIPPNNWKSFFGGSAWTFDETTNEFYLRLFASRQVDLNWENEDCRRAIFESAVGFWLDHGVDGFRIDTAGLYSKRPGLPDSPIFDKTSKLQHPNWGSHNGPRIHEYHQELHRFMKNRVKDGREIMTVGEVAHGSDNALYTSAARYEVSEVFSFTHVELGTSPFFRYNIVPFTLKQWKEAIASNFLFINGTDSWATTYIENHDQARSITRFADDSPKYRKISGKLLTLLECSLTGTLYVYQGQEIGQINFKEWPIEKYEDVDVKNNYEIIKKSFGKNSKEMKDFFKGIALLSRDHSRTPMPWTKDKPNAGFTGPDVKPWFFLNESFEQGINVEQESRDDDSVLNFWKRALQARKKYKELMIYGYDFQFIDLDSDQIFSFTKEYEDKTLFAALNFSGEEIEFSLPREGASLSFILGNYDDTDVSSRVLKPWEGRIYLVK
T2 sequence (P38158 whole entry): as above

For `O=C(CSc1nc2ccccc2cc1-c1nc2ccccc2[nH]1)Nc1cccc(Cl)c1` [C], the IC50 in series [1] (previously reported inhibitor, Fig. 1, read-out: IC50) is 3.2 ± 0.3 µM.

Consider `O=C(N/N=C/c1cccc(F)c1)c1ccc2nc(-c3ccccc3)c(-c3ccccc3)nc2c1` [F], for which the IC50 in series [1] (setting [5]) was 111 ± 6 µM. As for `Cc1cccc(NC(=O)CSc2nc3ccccc3cc2C=NNC(=O)c2ccccc2)c1C` [Compound 9l, 2-((3-((2-Benzoylhydrazineylidene)methyl)quinolin-2-yl)thio)-N-(2,3-dimethylphenyl)acetamide], the melting point fell in the range of 241 to 243 °C. The IC50 in series [2] amounted to 37.99 ± 0.2 µM. In the case of `Cc1cccc(C)c1NC(=O)CSc1nc2ccccc2cc1/C=N/NC(=O)c1ccccc1` [Compound 9m, 2-((3-((2-Benzoylhydrazineylidene)methyl)quinolin-2-yl)thio)N(2,6dimethylphenyl)acetamide], the IC50 in series [2] (α-glucosidase inhibition, mean ± SD, read-out: IC50) came to 14 ± 0.6 µM. The mode of inhibition entry in series [3] (Lineweaver–Burk plot, Km increased, Vmax unchanged) was “competitive”. Further, the Ki in series [3] (from plot of Km versus inhibitor concentration, read-out: Ki (inhibition constant)) amounted to 18 µM.

The molecule `O=C(CSc1nc2ccccc2cc1C=NNC(=O)c1ccccc1)NCc1ccc(F)cc1` [Compound 9p, 2-((3-((2-Benzoylhydrazineylidene)methyl)quinolin-2-yl)thio)-N-(4-fluorobenzyl)acetamide] returned a melting point of 269 to 271 °C. Further, the IC50 in series [2] amounted to 78 ± 2.4 µM. Consider `O=C(N/N=C/c1ccc(Cl)cc1)c1ccc(-c2nc3ccccc3s2)cc1` [E], for which, in series [1] (setting [5]), the IC50 was 83.8 ± 0.89 µM. Take `O=C(CSc1nc2ccccc2cc1C=NNC(=O)c1ccccc1)Nc1ccc(Cl)cc1` [Compound 9e, 2-((3-((2-Benzoylhydrazineylidene)methyl)quinolin-2-yl)thio)-N-(4-chlorophenyl)acetamide]: the melting point was 262 to 264 °C. In series [2], the IC50 was 234.9 ± 0.9 µM.

For `Cc1ccccc1NC(=O)CSc1nc2ccccc2cc1C=NNC(=O)c1ccccc1` [Compound 9h, 2-((3-((2-Benzoylhydrazineylidene)methyl)quinolin-2-yl)thio)-N-(o-tolyl)acetamide], the melting point lay within 260 to 263 °C. Also, in series [2], the IC50 was 141.8 ± 0.6 µM. In turn, `O=C(CSc1nc2ccccc2cc1C=NNC(=O)c1ccccc1)NCc1ccccc1` [Compound 9o, 2-((3-((2-Benzoylhydrazineylidene)methyl)quinolin-2-yl)thio)-N-benzylacetamide] registered a melting point of 241 to 243 °C. In addition, half-maximal inhibition in series [2] (IC50) required 373.8 ± 0.8 µM.

Consider `O=C(CSc1nc2ccccc2cc1C=NNC(=O)c1ccccc1)Nc1ccc(F)cc1` [Compound 9c, 2-((3-((2-Benzoylhydrazineylidene)methyl)quinolin-2-yl)thio)-N-(4-fluorophenyl)acetamide], for which the melting point lay within 271 to 273 °C. Also, the IC50 in series [2] was found to be 46 ± 0.5 µM. The matching figures for `O=C(CSc1nc2ccccc2cc1C=NNC(=O)c1ccccc1)Nc1ccc(Br)cc1` [Compound 9f, 2-((3-((2-Benzoylhydrazineylidene)methyl)quinolin-2-yl)thio)-N-(4-bromophenyl)acetamide]: 254 to 257 °C and 352.4 ± 1.1 µM.

Turning to `O=C(CSc1nc2ccccc2cc1C=NNC(=O)c1ccccc1)Nc1cccc(Cl)c1` [Compound 9d, 2-((3-((2-Benzoylhydrazineylidene)methyl)quinolin-2-yl)thio)-N-(3-chlorophenyl)acetamide], the melting point lay within 255 to 257 °C. The molecule also showed an IC50 in series [2] of 193.8 ± 1 µM. As for `O=C(CSc1nc2ccccc2cc1C=NNC(=O)c1ccccc1)Nc1ccc2ccccc2c1` [Compound 9n, 2-((3-((2-Benzoylhydrazineylidene)methyl)quinolin-2-yl)thio)-N-(naphthalen-2-yl)acetamide], the melting point fell in the range of 263 to 265 °C. In series [2], this molecule displayed an IC50 of 18.4 ± 0.4 µM. On to `O=C(O)c1ccc2ccccc2n1` [A], for which, in series [1] (setting [6]), the IC50 is 9.1 ± 2.3 µg/mL.

As for `Cc1ccc(NC(=O)CSc2nc3ccccc3cc2C=NNC(=O)c2ccccc2)cc1` [Compound 9i, 2-((3-((2-Benzoylhydrazineylidene)methyl)quinolin-2-yl)thio)-N-(p-tolyl)acetamide], the melting point lay within 254 to 256 °C. In series [2], this molecule had an IC50 of 305 ± 1.1 µM. `COc1ccc(NC(=O)CSc2nc3ccccc3cc2C=NNC(=O)c2ccccc2)cc1` [Compound 9j, 2-((3-((2-Benzoylhydrazineylidene)methyl)quinolin-2-yl)thio)-N-(4-methoxyphenyl)acetamide] yielded a melting point of 241 to 243 °C. In series [2], the IC50 was found to be 24.7 ± 0.3 µM. Consider `O=C(O)c1cnc2ccccc2c1` [B], for which the IC50 in series [1] (setting [6]) was 10.6 ± 1.4 µg/mL. With `CCc1ccc(NC(=O)CSc2nc3ccccc3cc2C=NNC(=O)c2ccccc2)cc1` [Compound 9k, 2-((3-((2-Benzoylhydrazineylidene)methyl)quinolin-2-yl)thio)-N-(4-ethylphenyl)acetamide], the melting point fell in the range of 255 to 257 °C. In addition, it took 60.4 ± 0.2 µM to reach half-maximal inhibition in series [2] (IC50).

Consider `COc1ccc2nc3cc(Cl)ccc3c(SCC(=O)Nc3ccc(C)cc3)c2c1` [D], for which, in series [1] (previously reported inhibitor and its positive control, read-out: IC50), the IC50 is 80 ± 2 µM. Further, the toxicity result in series [4] is “no toxicity”. `O=C(CSc1nc2ccccc2cc1C=NNC(=O)c1ccccc1)Nc1ccc([N+](=O)[O-])cc1` [Compound 9g, 2-((3-((2-benzoylhydrazineylidene)methyl)quinolin-2-yl)thio)-N-(4-nitrophenyl)acetamide] returned a melting point of 241 to 243 °C. In addition, the IC50 in series [2] was 93.7 ± 1.5 µM. For `O=C(CSc1nc2ccccc2cc1C=NNC(=O)c1ccccc1)Nc1ccccc1F` [Compound 9b, 2-((3-((2-Benzoylhydrazineylidene)methyl)quinolin-2-yl)thio)-N-(2-fluorophenyl)acetamide], the melting point lay within 268 to 270 °C. This molecule returned an IC50 in series [2] of 109.4 ± 0.2 µM.

As for `O=C(CSc1nc2ccccc2cc1C=NNC(=O)c1ccccc1)Nc1ccccc1` [Compound 9a, 2-((3-((2-Benzoylhydrazineylidene)methyl)quinolin-2-yl)thio)-N-phenylacetamide], the melting point lay within 245 to 247 °C. This molecule showed an IC50 in series [2] of 88.5 ± 1.3 µM. Besides, the “improvement in inhibitory potency compared to the positive control” value in series [2] (versus acarbose) is “approximately nine-fold”.
